The source of these data is patent US7416848B2, “DNA encoding SNORF25 receptor” (H. Lundbeck A/S, priority 1999, dated 2008).

One test concerns the target T1, dopamine D1 receptor (Homo sapiens, UniProt P21728).
T1 construct: expressed in transfected cells; host or cells: Cos-7 cells
Briefly: cAMP in Cos-7 cells transfected with dopamine D1 receptor. The following applies: 10 μM, dopamine D1 (FIG. 7). Format: cell-based. How it is done: (§1) A typical protocol for the electroporation method as applied to Cos-7 cells is described as follows. Cells to be used for transfection are split 24 hours prior to the transfection to provide flasks which are subconfluent at the time of transfection. The cells are harvested by trypsinization resuspended in their growth media and counted. 5×10^6 cells are suspended in 300 μl of DMEM and placed into an electroporation cuvette. 8 μg of receptor DNA plus 8 μg of any additional DNA needed (e.g. G protein expression vector, reporter construct, antibiotic resistance marker, mock vector, etc.) is added to the cell suspension, the cuvette is placed into a BioRad Gene Pulser and subjected to an electrical pulse (Gene Pulser settings: 0.25 kV voltage, 950 μF capacitance). Following the pulse, 800 μl of complete DMEM is added to each cuvette and the suspension transferred to a sterile tube. Complete medium is added to each tube to bring the final cell concentration to 1×10^5 cells/100 μl. […]
(§2) The receptor-mediated stimulation or inhibition of cyclic AMP (cAMP) formation may be assayed in cells expressing the receptors. […] The plates are stored at 4° C. for 15 min, and the cAMP content in the stopping solution is measured by radioimmunoassay. Radioactivity may be quantified using a gamma counter equipped with data reduction software. […]

For test [1], the system named is mock-transfected CHO cells. Briefly: cAMP and IP release in mock-transfected CHO cells. It counts as cell-based, Chinese hamster. How it is done:
CHO cells are grown on 150 mm plates in HAM's F-12 medium with supplements (10% bovine calf serum, 4 mM L-glutamine and 100 units/ml penicillin/100 μg/ml streptomycin) at 37° C., 5% CO2. Stock plates of CHO cells are trypsinized and split 1:8 every 3–4 days.
as §1, with “capacitance).” for “capacitance). Following the pulse, 800 μl of complete DMEM is added to each cuvette and the suspension transferred to a sterile tube. Complete medium is added to each tube to bring the final cell concentration to 1×10^5 cells/100 μl.”
as §2

For a further test, the target named is T2, SNORF25 (Homo sapiens, UniProt Q8TDV5).
T2 sequence (Q8TDV5 1-335): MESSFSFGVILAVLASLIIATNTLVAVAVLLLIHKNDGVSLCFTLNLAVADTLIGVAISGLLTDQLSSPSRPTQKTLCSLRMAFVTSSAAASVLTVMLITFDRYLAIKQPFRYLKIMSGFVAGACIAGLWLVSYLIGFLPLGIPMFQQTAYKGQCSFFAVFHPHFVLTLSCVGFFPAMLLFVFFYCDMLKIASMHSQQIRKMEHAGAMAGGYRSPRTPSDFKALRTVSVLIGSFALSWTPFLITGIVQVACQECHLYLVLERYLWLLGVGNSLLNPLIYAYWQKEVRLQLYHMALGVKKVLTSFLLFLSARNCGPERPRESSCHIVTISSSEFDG
Description: Cl- currents via phospholipase C pathway in SNORF25 oocytes. On the set-up: from linearized plasmids or PCR products containing the complete coding region of the genes; expressed in transfected cells; host or cells: Xenopus laevis oocytes injected with SNORF25 mRNA (with or without CFTR mRNA). It counts as cell-based. How it is done:
Oocytes are harvested from Xenopus laevis and injected with mRNA transcripts as previously described (Quick and Lester, 1994; Smith et al., 1997). The test receptor of this invention and Gα subunit RNA transcripts are synthesized using the T7 polymerase (“Message Machine,” Ambion) from linearized plasmids or PCR products containing the complete coding region of the genes. Oocytes are injected with 10 ng synthetic receptor RNA and incubated for 3–8 days at 17 degrees. Three to eight hours prior to recording, oocytes are injected with 500 pg promiscuous Gα subunits mRNA in order to observe coupling to Ca^++ activated Cl^− currents.
Heterologous expression of GPCRs in Xenopus oocytes has been widely used to determine the identity of signaling pathways activated by agonist stimulation (Gundersen et al., 1983; Takahashi et al., 1987). Activation of the phospholipase C (PLC) pathway is assayed by applying a test compound in ND96 solution to oocytes previously injected with mRNA for the SNORF25 receptor and observing inward currents at a holding potential of approximately −80 mV. The appearance of currents that reverse at −25 mV and display other properties of the Ca^++-activated Cl^− channel is indicative of receptor-activation of PLC and release of IP3 and intracellular Ca^++.

The subject of test [2] is control (CFTR alone) oocytes. Briefly: CFTR Cl- currents in control oocytes injected with only CFTR mRNA. Format: cell-based, Xenopus laevis. The following applies: 10 μM.
The target in the next test is T3, serotonin 5-HT6 receptor (Homo sapiens, UniProt P50406).
T3 construct: expressed in transfected cells; host or cells: Cos-7 cells
T3 sequence (P50406 whole entry): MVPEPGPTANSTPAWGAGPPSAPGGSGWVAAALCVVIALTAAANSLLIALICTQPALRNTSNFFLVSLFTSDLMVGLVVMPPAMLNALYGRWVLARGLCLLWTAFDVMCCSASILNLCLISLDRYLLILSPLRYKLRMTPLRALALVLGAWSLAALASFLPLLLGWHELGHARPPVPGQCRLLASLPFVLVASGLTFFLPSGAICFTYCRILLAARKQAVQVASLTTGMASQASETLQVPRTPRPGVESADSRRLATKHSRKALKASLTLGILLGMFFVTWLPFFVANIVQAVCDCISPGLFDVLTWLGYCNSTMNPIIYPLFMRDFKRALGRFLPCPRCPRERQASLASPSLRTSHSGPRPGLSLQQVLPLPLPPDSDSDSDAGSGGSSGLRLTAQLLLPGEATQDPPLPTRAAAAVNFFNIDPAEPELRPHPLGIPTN
Description: cAMP in Cos-7 cells transfected with serotonin 5-HT6 receptor. As to conditions: 10 μM, serotonin 5-HT6 (FIG. 7). Format: cell-based. On the procedure:
as §1, §2

T1 sequence (P21728 whole entry): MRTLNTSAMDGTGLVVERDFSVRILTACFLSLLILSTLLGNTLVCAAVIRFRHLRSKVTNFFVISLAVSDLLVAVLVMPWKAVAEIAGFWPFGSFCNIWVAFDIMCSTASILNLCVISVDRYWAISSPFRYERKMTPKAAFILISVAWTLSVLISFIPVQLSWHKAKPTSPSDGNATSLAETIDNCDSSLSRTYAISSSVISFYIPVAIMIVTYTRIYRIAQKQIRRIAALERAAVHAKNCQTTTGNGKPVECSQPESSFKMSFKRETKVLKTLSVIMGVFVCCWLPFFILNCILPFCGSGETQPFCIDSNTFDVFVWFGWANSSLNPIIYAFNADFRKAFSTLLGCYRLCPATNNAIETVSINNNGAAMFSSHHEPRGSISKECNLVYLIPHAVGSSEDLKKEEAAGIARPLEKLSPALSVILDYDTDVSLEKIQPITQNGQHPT

`CC1=C(/C=C/C(C)=C/C=C/C(C)=C/C(=O)O)C(C)(C)CCC1` [ATRA, all-trans-retinoic acid]: the cAMP response entry on dopamine D1 receptor and on serotonin 5-HT6 receptor was “no response” throughout. The “cAMP and IP release in mock-transfected CHO cells” value in test [1] is recorded as “without affecting these parameters”. Also, on SNORF25 (chimeric G-proteins coupling Gi and Go GPCRs to phospholipase C pathway), the “responses in oocytes expressing chimeric G-proteins” value is reported as “not evoked”. Besides, the “Cl- currents in oocytes lacking CFTR” value on SNORF25 (oocytes lacking CFTR, Gq-mediated phospholipase C pathway) is reported as “did not stimulate Cl^− currents”. In addition, in test [2], the “current response in oocytes injected with only CFTR mRNA” value was “no such current was observed”.
